Data taken from patent US7465549B2 (UCB, S.A., priority 2002, dated 2008).
Where two headings read alike, the source gives them in different places.

Key:
[1] = target: T1, levetiracetam binding site (LBS) (Rattus norvegicus, UniProt Q02563); details: cited from earlier work; for displacement of LEV binding: rat brain LBS
T1 construct: host or cells: crude rat brain membranes (Noyer et al. 1995; Gillard et al. 2003)

[2] = target: T1, levetiracetam binding site (LBS); experiment: [3H]ucb 30889 binding on crude rat brain membranes (kinetics, saturation, competition)
[3] = system: LBS in peripheral tissues; experiment: radioligand binding in peripheral tissues; parameters: species or system rat; details: 150 μg of protein/assay, 1.3 nM radioligand
Description: (§1) Binding experiments were conducted on crude rat brain membranes at 4° C. as described in Noyer et al. (Euro. J. Pharmacol. 286: 137-146 (1995)). Incubation time for equilibrium studies was 120 min. For kinetic and competition studies, [^3H]ucb 30889 (30 Ci/mmol) was used at a concentration of 1.3 nM in 0.5 ml of a Tris-HCl (pH 7.4) buffer containing 2 mM Mg^2+. Localization of the LBS in brain substructures was assessed by autoradiography on 25 μm thick slices incubated under similar conditions. Slides were then washed twice for 10 min at 4° C. in 50 mM Tris-HCl (pH 7.4) containing 0.5% BSA, dried and exposed for 3 weeks to [^3H]Hyperfilm at −20° C. Non-specific binding (NSB) was determined by the inclusion of 1 mM LEV during the incubation period.
The limit of detection under the experimental conditions (150 μg of protein/assay and 1.3 nM of radioligand) was a Bmax of 200 fmol/mg protein.

COS-7 = experiment: [3H]ucb 30889 binding in cell types
Description: To identify and characterize the LBS in situ, [^3H]ucb 30889 was used to map the LBS within the brain and to study both its cellular and subcellular distribution. For rat brain autoradiography, 25 μm slices were incubated with 1.3 nM [^3H]ucb 30889 for 120 min at 4° C. in 50 mM Tris-HCl buffer (pH 7.4). Binding assays with rat brain membranes and various neuronal cell lines were performed under similar conditions. […] For photolabeling, membranes were incubated with 40 nM [^3H]ucb 30889 for 120 min at 4° C. in the same buffer, followed by irradiation with UV-light for 30 min (Fuks et al., Eur. J. Pharmacol. 478:11-19 (2003)).
In addition, a PC12 cell line subclone, PC12a, which is low in LBS, was used to establish a pool of PC 12 cells expressing hSV2A under stable antibiotic selection.

hSV2B = target: T2, hSV2B (Homo sapiens, UniProt Q7L1I2); experiment: [3H]ucb 30889 binding to hSV2B in transient COS-7 system
T2 construct: expressed in transfected cells; host or cells: COS-7, transient

hSV2C = target: T3, hSV2C (Homo sapiens, UniProt Q496J9); experiment: [3H]ucb 30889 binding to hSV2C in transient COS-7 system
T3 construct: expressed in transfected cells; host or cells: COS-7, transient
T3 sequence (Q496J9 1-727): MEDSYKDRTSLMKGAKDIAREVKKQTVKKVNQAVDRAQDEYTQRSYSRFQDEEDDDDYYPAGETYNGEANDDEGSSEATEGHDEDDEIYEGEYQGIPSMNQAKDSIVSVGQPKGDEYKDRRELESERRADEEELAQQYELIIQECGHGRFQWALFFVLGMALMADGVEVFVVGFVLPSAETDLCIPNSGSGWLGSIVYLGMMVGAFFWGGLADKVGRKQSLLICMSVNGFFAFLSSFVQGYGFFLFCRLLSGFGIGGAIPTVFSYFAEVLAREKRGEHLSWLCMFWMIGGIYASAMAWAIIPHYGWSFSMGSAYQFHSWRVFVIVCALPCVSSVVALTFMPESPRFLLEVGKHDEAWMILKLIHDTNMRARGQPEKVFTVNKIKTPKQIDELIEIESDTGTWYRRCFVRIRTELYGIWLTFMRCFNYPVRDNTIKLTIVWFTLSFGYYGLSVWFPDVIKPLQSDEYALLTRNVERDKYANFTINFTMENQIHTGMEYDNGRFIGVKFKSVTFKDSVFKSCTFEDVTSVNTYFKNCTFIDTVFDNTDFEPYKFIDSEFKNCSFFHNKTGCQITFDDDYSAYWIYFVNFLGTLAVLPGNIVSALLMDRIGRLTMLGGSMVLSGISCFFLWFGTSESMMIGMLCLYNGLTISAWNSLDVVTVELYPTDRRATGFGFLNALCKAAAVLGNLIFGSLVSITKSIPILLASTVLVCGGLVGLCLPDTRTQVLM

soluble SV2A = target: T4, soluble SV2A (Rattus norvegicus, UniProt Q02563); experiment: binding to soluble SV2A (n-dodecyl-β-D-maltoside solubilized rat brain membranes)
T4 construct: the soluble protein maintains its native structural conformation in n-dodecyl-β-D-maltoside; from tissue; host or cells: rat brain membranes, detergent supernatant (100,000 g)
Description: The rat brain membranes were diluted in a solubilization buffer (Tris-HCl 20 mM pH 7.4, 0.25 M sucrose, protease inhibitors Complete Roche) containing n-dodecyl-β-D-maltoside 15 mM and incubated for two hours at 4° C. Subsequently, the solution was centrifuged at 4° C. for one hour at 100,000 g. […] The supernatants were incubated with [^3H]ucb 30889 as described.

LBS = target: T5, LBS (Rattus norvegicus, UniProt Q02563); experiment: autoradiography of [3H]ucb 30889 binding on rat brain sections
T5 construct: from tissue; host or cells: rat brain (crude membranes; 25 µm sections for autoradiography)
Description: as §1

[4] = system: LBS in peripheral tissues; details: heart, kidneys, spleen, pancreas, adrenals, lungs and liver; radiolabel studies; cited from earlier work
[5] = system: audiogenic-susceptible mouse; details: cited from earlier work
hSV2A = target: T6, hSV2A (Homo sapiens, UniProt Q7L0J3); experiment: [3H]ucb 30889 binding to hSV2A transiently expressed in COS-7 cells; details: displacement of [3H]ucb 30889, COS-7 cells
T6 construct: expressed in transfected cells; host or cells: COS-7, transient, Lipofectamine 2000, pDEST 12.2 Gateway vector (CMV promoter)
T6 sequence (Q7L0J3 whole entry): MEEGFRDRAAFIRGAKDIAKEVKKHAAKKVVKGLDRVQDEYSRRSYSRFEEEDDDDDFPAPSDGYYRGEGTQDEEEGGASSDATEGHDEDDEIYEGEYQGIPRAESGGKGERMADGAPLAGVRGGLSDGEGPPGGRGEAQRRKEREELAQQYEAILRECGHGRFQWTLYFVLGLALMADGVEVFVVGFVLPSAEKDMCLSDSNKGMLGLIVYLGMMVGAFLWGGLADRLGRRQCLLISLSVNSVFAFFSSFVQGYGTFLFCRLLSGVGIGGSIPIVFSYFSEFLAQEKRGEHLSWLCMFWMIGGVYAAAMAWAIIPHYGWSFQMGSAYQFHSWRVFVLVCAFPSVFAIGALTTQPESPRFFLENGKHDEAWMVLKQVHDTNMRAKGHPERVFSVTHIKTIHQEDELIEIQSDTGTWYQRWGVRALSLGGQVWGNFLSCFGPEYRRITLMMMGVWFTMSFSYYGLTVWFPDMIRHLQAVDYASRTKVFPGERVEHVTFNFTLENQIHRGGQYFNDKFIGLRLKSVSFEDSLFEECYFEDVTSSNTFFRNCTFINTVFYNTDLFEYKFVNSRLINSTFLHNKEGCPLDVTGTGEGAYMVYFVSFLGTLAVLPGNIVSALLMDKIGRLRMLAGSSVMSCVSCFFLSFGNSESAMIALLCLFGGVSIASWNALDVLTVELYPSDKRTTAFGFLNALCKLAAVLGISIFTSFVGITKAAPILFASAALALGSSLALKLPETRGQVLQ

T1 sequence (Q02563 whole entry): as the sequence (Q7L0J3 whole entry) above, with D53E, S62A, T71A, E144D, A154T, G440S, S482A, I572V, M634L counted along it
T5 sequence (Q02563 whole entry): as the sequence (Q7L0J3 whole entry) above, with D53E, S62A, T71A, E144D, A154T, G440S, S482A, I572V, M634L counted along it
T4 sequence (Q02563 whole entry): as the sequence (Q7L0J3 whole entry) above, with D53E, S62A, T71A, E144D, A154T, G440S, S482A, I572V, M634L counted along it
T2 sequence (Q7L1I2 whole entry): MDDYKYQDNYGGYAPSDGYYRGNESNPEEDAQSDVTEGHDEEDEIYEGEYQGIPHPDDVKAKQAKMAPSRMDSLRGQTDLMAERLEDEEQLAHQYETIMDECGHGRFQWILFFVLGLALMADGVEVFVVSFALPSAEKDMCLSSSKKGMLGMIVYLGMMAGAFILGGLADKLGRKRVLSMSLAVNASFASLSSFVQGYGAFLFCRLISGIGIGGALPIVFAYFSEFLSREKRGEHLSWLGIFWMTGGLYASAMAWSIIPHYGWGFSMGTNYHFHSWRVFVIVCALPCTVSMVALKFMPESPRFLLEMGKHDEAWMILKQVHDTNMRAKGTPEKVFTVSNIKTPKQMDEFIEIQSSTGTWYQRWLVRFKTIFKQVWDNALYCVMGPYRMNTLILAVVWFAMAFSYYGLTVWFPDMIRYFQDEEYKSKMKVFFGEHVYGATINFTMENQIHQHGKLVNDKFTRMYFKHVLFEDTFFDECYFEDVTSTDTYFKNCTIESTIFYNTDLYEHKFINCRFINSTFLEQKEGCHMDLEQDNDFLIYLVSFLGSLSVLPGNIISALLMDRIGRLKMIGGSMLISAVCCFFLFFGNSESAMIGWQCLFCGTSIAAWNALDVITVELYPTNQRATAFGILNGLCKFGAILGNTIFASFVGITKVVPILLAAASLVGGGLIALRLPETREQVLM

CCC1(C)CC(=O)NC1=O (centres unmarked) [ethosuximide]
displacement of LEV binding [1]: competed with LEV

Cc1ccsc1C(=CCCN1CCC[C@@H](C(=O)O)C1)c1sccc1C [tiagabine]
displacement of LEV binding [1]: do not displace LEV binding

NC(=O)N1c2ccccc2C=Cc2ccccc21 [carbamazepine]
displacement of LEV binding [1]: do not displace LEV binding

O=C1NC(=O)C(c2ccccc2)(c2ccccc2)N1 [phenytoin]
displacement of LEV binding [1]: do not displace LEV binding

NC(=O)OCC(COC(N)=O)c1ccccc1 [felbamate]
displacement of LEV binding [1]: do not displace LEV binding

CC[C@@H](C(N)=O)N1CC(c2cccc(N=[N+]=[N-])c2)CC1=O (stereo partly drawn) [ucb 30889, (2S)-2-[4-(3-azidophenyl)-2-oxopyrrolidin-1-yl]butanamide]
Bmax [2]: 5054±704 fmol/mg protein
specific binding in peripheral tissues [3]: could not be detected
binding to untransfected COS-7 cell line (COS-7): no binding above background
binding to hSV2B (hSV2B): no binding above background
binding to hSV2C (hSV2C): no binding above background
affinity for soluble SV2A compared with native membrane (soluble SV2A): equivalent to that exhibited by ligands to the native membrane

CC[C@@H](C(N)=O)N1CCCC1=O [levetiracetam, (S)-α-ethyl-2-oxo-1-pyrrolidine acetamide]
inhibition of [3H]ucb 30889 binding in brain sections (LBS): can be inhibited by levetiracetam at concentrations equivalent to those observed in in vitro binding
specific binding in peripheral tissues [4]: no specific binding
affinity for LBS ([1]; radioligand [3H]LEV): only micromolar affinity
suppression of seizures [5]: unexpected potent ability of LEV to suppress seizures

COc1ccc(C(=O)N2CCCC2=O)cc1 [aniracetam]
displacement of LEV binding [1]: displaced LEV binding

NS(=O)(=O)Cc1noc2ccccc12 [zonisamide]
displacement of LEV binding [1]: do not displace LEV binding

CC[C@@H](C(N)=O)N1CCCC1=O [ucb L060]
affinity to hSV2A compared with LEV (hSV2A): significantly less affinity

C=CC(N)CCC(=O)O (centres unmarked) [vigabatrin]
displacement of LEV binding [1]: do not displace LEV binding

CCCC(CCC)C(=O)O [valproate]
displacement of LEV binding [1]: do not displace LEV binding
